Measured values published in patent publication US4925865A, “Antimycotic agents” (Bayer Aktiengesellschaft, priority 1987, dated 1990).
≈ marks a conversion by molar mass, not a printed value.

Experiments:
Trichophyton mentagr. = assay: Antimycotic in vitro activity, serial dilution test, Trichophyton mentagr.; type: cell-based, Trichophyton mentagrophytes; conditions: Sabouraud's test medium, 28-37° C., 96 hours
Procedure: (§1) The in vitro tests were carried out in the serial dilution test using inocula of microorganisms of approximately 5×10^3 to 10^4 microorganisms/ml of substrate. The nutrient medium used was (a) for dermatophytes and Blastomycetes: Sabouraud's test medium (b) for yeasts: meat extract/dextrose broth. The incubation temperature was 28° C. to 37° C., and the incubation period was 24 to 96 hours with yeasts and 96 hours with dermatophytes and Blastomycetes.

Candida albicans = assay: Antimycotic in vitro activity, serial dilution test, Candida albicans; type: cell-based; conditions: meat extract/dextrose broth, 28-37° C., 24 to 96 hours
Procedure: as §1

Torulopsis glabrata = assay: Antimycotic in vitro activity, serial dilution test, Torulopsis glabrata; type: cell-based; conditions: Nakaseomyces glabratus; 28-37° C., 24 to 96 hours
Procedure: as §1

Aspergillus fumigatus = assay: Antimycotic in vitro activity, serial dilution test, Aspergillus fumigatus; type: cell-based; conditions: 28-37° C.
Procedure: as §1

mycoses = conditions: compare EP-OS No.0,180,850; cited from earlier work

`OC(Cn1cncn1)(c1ccc(Cl)cc1)C1(Oc2ccc(Cl)cc2Cl)CC1` (centres unmarked) [(B), 1-(4-chlorophenyl)-1-[1-(2,4-dichlorophenoxy)-cycloprop-1-yl]-2-(1,2,4-triazol-1-yl)-ethan-1-ol, reference compound] showed an MIC (Trichophyton mentagr.) of 64 mg/L (≈ 151 µM), an MIC (Candida albicans) of 16 mg/L (≈ 37.7 µM) and an MIC (Torulopsis glabrata) of 64 mg/L (≈ 151 µM). For the same compound, the MIC (Aspergillus fumigatus) was over 64 mg/L and the antimycotic properties (mycoses) was “exhibit antimycotic properties”.
